From ChEMBL document CHEMBL1201862, “PubChem BioAssay data set” (2004)
Structures can show the parent of a compound that is named as a salt.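 Values below derive from 48-hour exposures of cells grown in 96-well plates, with endpoints linearly interpolated between the two concentrations bracketing the appropriate inhibition level. GI50 marks 50% less growth.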 Activity calls are given as the source filed them. Cut-off read from the data, not from the text of the source: active = GI50 up to about 1.1 µM and inactive = higher.

Key:
Assay in all cases: NCI tumour cell line growth inhibition, 48 h
CAKI-1 = test system: CAKI-1
COLO 205 = test system: COLO 205
DU-145 = test system: DU-145
EKVX = test system: EKVX
HCC 2998 = test system: HCC 2998
HCT-15 = test system: HCT-15
HOP-92 = test system: HOP-92
K562 = test system: K562
KM12 = test system: KM12
MDA-MB-435 = test system: MDA-MB-435
MOLT-4 = test system: MOLT-4
NCI-H226 = test system: NCI-H226
NCI-H522 = test system: NCI-H522
RPMI-8226 = test system: RPMI-8226
SK-MEL-5 = test system: SK-MEL-5
SK-OV-3 = test system: SK-OV-3
T47D = test system: T47D
TK-10 = test system: TK-10
UACC-257 = test system: UACC-257
HL-60 = test system: HL-60

Row | SMILES | GI50 (CAKI-1) | GI50 (COLO 205) | GI50 (DU-145) | GI50 (EKVX) | GI50 (HCC 2998) | GI50 (HCT-15) | GI50 (HOP-92) | GI50 (K562) | GI50 (KM12) | GI50 (MDA-MB-435) | GI50 (MOLT-4) | GI50 (NCI-H226) | GI50 (NCI-H522) | GI50 (RPMI-8226) | GI50 (SK-MEL-5) | GI50 (SK-OV-3) | GI50 (T47D) | GI50 (TK-10) | GI50 (UACC-257) | GI50 (HL-60)
1 | CCOC(=O)c1c(SCCN2CCCC2)n(-c2ccccc2)c(=S)n(-c2ccccc2)c1=O | 2.29 µM (inactive) | 1.84 µM (inactive) | 1.68 µM (inactive) | 13.9 µM (inactive) | 1.87 µM (inactive) | 2.21 µM | 1.6 µM (inactive) | 2.12 µM (inactive) | 15.8 µM (inactive) | 2.55 µM (inactive) | 1.65 µM (inactive) | 16.8 µM (inactive) | 1.77 µM (inactive) | 2.18 µM (inactive) | 3.07 µM (inactive) | 18.1 µM (inactive) | 2.72 µM (inactive) | 1.67 µM (inactive) | 1.69 µM (inactive) | –
2 | Cc1cnc2sn(-c3ccc([N+](=O)[O-])cc3)c(=O)c2c1 | – | > 100 µM (inactive) | 99.3 µM (inactive) | 74.1 µM (inactive) | > 100 µM (inactive) | > 100 µM | 33.3 µM (inactive) | > 100 µM (inactive) | > 100 µM (inactive) | > 100 µM (inactive) | > 100 µM (inactive) | > 100 µM (inactive) | 34.7 µM (inactive) | > 100 µM (inactive) | > 100 µM (inactive) | 29 µM (inactive) | > 100 µM (inactive) | 75.2 µM (inactive) | – | –
3 | NCCNCC(O)CO (configuration not stated) | > 100 µM (inactive) | > 100 µM (inactive) | > 100 µM (inactive) | > 100 µM (inactive) | – | > 100 µM | > 100 µM (inactive) | > 100 µM (inactive) | > 100 µM (inactive) | > 100 µM (inactive) | > 100 µM (inactive) | > 100 µM (inactive) | > 100 µM (inactive) | > 100 µM (inactive) | > 100 µM (inactive) | > 100 µM (inactive) | > 100 µM (inactive) | > 100 µM (inactive) | > 100 µM (inactive) | > 100 µM (inactive)
4 | Cc1cc(CNC(=O)OCc2ccccc2)c(C)c2c1Oc1ccccc1O2 | 21.1 µM (inactive) | 50.1 µM (inactive) | 71 µM (inactive) | 42.9 µM (inactive) | > 100 µM (inactive) | 97.5 µM | 1.26 µM (inactive) | > 100 µM (inactive) | 43.6 µM (inactive) | > 100 µM (inactive) | > 100 µM (inactive) | 26.5 µM (inactive) | 13.9 µM (inactive) | > 100 µM (inactive) | > 100 µM (inactive) | 17.1 µM (inactive) | 25.8 µM (inactive) | 41.8 µM (inactive) | > 100 µM (inactive) | –
5 | c1ccc(C(=NNc2nc3ccccc3[nH]2)c2ccccn2)nc1 | 0.102 µM (active) | 0.0257 µM (active) | 0.268 µM (active) | 0.929 µM (active) | 15 µM (inactive) | 0.115 µM | 0.0232 µM (active) | 0.172 µM (active) | 0.298 µM (active) | 0.348 µM (active) | 0.015 µM (active) | 0.0625 µM (active) | 0.0288 µM (active) | 0.129 µM (active) | 0.159 µM (active) | 0.103 µM (active) | 0.0131 µM (active) | 0.121 µM (active) | 0.145 µM (active) | –
6 | Br/C(=N\N=c1/nn[nH][nH]1)c1ccncc1 | > 100 µM (inactive) | > 100 µM (inactive) | > 100 µM (inactive) | > 100 µM (inactive) | – | > 100 µM | > 100 µM (inactive) | > 100 µM (inactive) | > 100 µM (inactive) | > 100 µM (inactive) | > 100 µM (inactive) | > 100 µM (inactive) | > 100 µM (inactive) | > 100 µM (inactive) | > 100 µM (inactive) | > 100 µM (inactive) | > 100 µM (inactive) | > 100 µM (inactive) | > 100 µM (inactive) | > 100 µM (inactive)
7 | CC(=O)[C@@H]1C/C(=C\OCc2ccccc2)O[C@H]1C | > 100 µM (inactive) | > 100 µM (inactive) | > 100 µM (inactive) | > 100 µM (inactive) | – | > 100 µM | > 100 µM (inactive) | 54 µM (inactive) | > 100 µM (inactive) | > 100 µM (inactive) | > 100 µM (inactive) | > 100 µM (inactive) | > 100 µM (inactive) | > 100 µM (inactive) | > 100 µM (inactive) | > 100 µM (inactive) | > 100 µM (inactive) | > 100 µM (inactive) | > 100 µM (inactive) | –
8 | Nc1ccc2nc(N)n[n+]([O-])c2c1 | > 100 µM (inactive) | > 100 µM (inactive) | > 100 µM (inactive) | > 100 µM (inactive) | – | > 100 µM | – | > 100 µM (inactive) | > 100 µM (inactive) | > 100 µM (inactive) | > 100 µM (inactive) | > 100 µM (inactive) | > 100 µM (inactive) | > 100 µM (inactive) | > 100 µM (inactive) | > 100 µM (inactive) | > 100 µM (inactive) | > 100 µM (inactive) | > 100 µM (inactive) | > 100 µM (inactive)
9 | Nc1nc(Cl)c2nnn(CC3CCC(CO)C3)c2n1 (configuration not stated) | > 100 µM (inactive) | > 100 µM (inactive) | > 100 µM (inactive) | > 100 µM (inactive) | > 100 µM (inactive) | > 100 µM | > 100 µM (inactive) | > 100 µM (inactive) | > 100 µM (inactive) | > 100 µM (inactive) | – | > 100 µM (inactive) | – | > 100 µM (inactive) | > 100 µM (inactive) | > 100 µM (inactive) | > 100 µM (inactive) | > 100 µM (inactive) | > 100 µM (inactive) | –
10 | CCCCCCCCCCCCCCCCCCNc1ccn(C2OC(COP(=O)(O)OCC3CCC(n4cnc5c(=O)[nH]cnc54)O3)C(O)C2O)c(=O)n1 (configuration not stated) | > 100 µM (inactive) | > 100 µM (inactive) | > 100 µM (inactive) | > 100 µM (inactive) | – | 97.5 µM | > 100 µM (inactive) | – | > 100 µM (inactive) | > 100 µM (inactive) | > 100 µM (inactive) | > 100 µM (inactive) | 51.5 µM (inactive) | – | > 100 µM (inactive) | > 100 µM (inactive) | 95.5 µM (inactive) | 19.5 µM (inactive) | > 100 µM (inactive) | –
11 | CCOC(=O)NC(N(C)C(C(C)C)P(=O)(OCC)OCC)(C(F)(F)F)C(F)(F)F (configuration not stated) | > 100 µM (inactive) | > 100 µM (inactive) | > 100 µM (inactive) | > 100 µM (inactive) | – | > 100 µM | > 100 µM (inactive) | > 100 µM (inactive) | > 100 µM (inactive) | > 100 µM (inactive) | > 100 µM (inactive) | > 100 µM (inactive) | > 100 µM (inactive) | > 100 µM (inactive) | > 100 µM (inactive) | – | > 100 µM (inactive) | > 100 µM (inactive) | > 100 µM (inactive) | > 100 µM (inactive)
12 | O=C(CCl)Nc1cc(Cl)c(Cl)cc1Cl | 2.96 µM (inactive) | 1.85 µM (inactive) | 3.16 µM (inactive) | 2.54 µM (inactive) | 4.84 µM (inactive) | 2.09 µM | – | 3.66 µM (inactive) | 0.307 µM (active) | 1.38 µM (inactive) | > 10 µM (inactive) | 1.01 µM (active) | 0.505 µM (active) | 4.74 µM (inactive) | 1.78 µM (inactive) | > 10 µM (inactive) | 2.29 µM (inactive) | 1.83 µM (inactive) | 1.84 µM (inactive) | 2.82 µM (inactive)
13 | Cc1nn(-c2ccccc2)c2nc3c(c(C)nn3-c3ccccc3)c(-c3ccccc3Br)c12 | > 100 µM (inactive) | > 100 µM (inactive) | > 100 µM (inactive) | > 100 µM (inactive) | > 100 µM (inactive) | > 100 µM | > 100 µM (inactive) | > 100 µM (inactive) | > 100 µM (inactive) | > 100 µM (inactive) | > 100 µM (inactive) | > 100 µM (inactive) | > 100 µM (inactive) | > 100 µM (inactive) | > 100 µM (inactive) | > 100 µM (inactive) | > 100 µM (inactive) | > 100 µM (inactive) | > 100 µM (inactive) | –
14 | O=C(O)Cn1ccc(=O)c2c([N+](=O)[O-])cccc21 | > 100 µM (inactive) | > 100 µM (inactive) | > 100 µM (inactive) | – | > 100 µM (inactive) | > 100 µM | – | > 100 µM (inactive) | > 100 µM (inactive) | > 100 µM (inactive) | > 100 µM (inactive) | > 100 µM (inactive) | > 100 µM (inactive) | – | > 100 µM (inactive) | > 100 µM (inactive) | > 100 µM (inactive) | > 100 µM (inactive) | > 100 µM (inactive) | > 100 µM (inactive)
15 | [N-]=[N+]=NC1CC(n2ccc(N)nc2=O)OC1COP(=O)(O)OP(=O)(O)OP(=O)(O)O (configuration not stated) | > 100 µM (inactive) | > 100 µM (inactive) | > 100 µM (inactive) | > 100 µM (inactive) | > 100 µM (inactive) | > 100 µM | – | > 100 µM (inactive) | – | > 100 µM (inactive) | > 100 µM (inactive) | > 100 µM (inactive) | > 100 µM (inactive) | > 100 µM (inactive) | > 100 µM (inactive) | > 100 µM (inactive) | > 100 µM (inactive) | – | > 100 µM (inactive) | > 100 µM (inactive)
16 | NCCc1cc(O)c(O)cc1O [OXIDOPAMINE HYDROCHLORIDE] | 18.6 µM (inactive) | 41.9 µM (inactive) | 17.7 µM (inactive) | 26.6 µM (inactive) | 56.2 µM (inactive) | 17.1 µM | – | 21.5 µM (inactive) | 17.5 µM (inactive) | 18.9 µM (inactive) | 21.8 µM (inactive) | – | – | 3.19 µM (inactive) | 18.5 µM (inactive) | > 100 µM (inactive) | 23.1 µM (inactive) | 62.5 µM (inactive) | 20.4 µM (inactive) | –
